Holding throughout (format): in vivo
One assay has as its system Puccinia triticina. Briefly: Wheat brown rust (PUCCRT), disease control on wheat seedlings. The note with it: low volume application at 121.5 g/H. The method, boiled down: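 Compounds in acetone, diluted with nine volumes of water containing 110 ppm Triton X-100, sprayed to run-off on first-leaf Yuma wheat seedlings; track-spray tests used EC formulations with 0.1% Trycol 5941. Puccinia triticina spores applied before or after treatment. Overnight dark dew room at 22° C, 100% humidity, then greenhouse at 24° C.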

For a further assay, the system named is Phakopsora pachyrhizi. As to the kind of experiment: Asian soybean rust (PHAKPA), disease control on soybean seedlings. The following applies: High volume application at 25 ppm. The method, boiled down: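 Two-week-old Williams 82 soybean seedlings were sprayed to run-off with compound in acetone/water (1:9) containing 0.011% Tween 20. Inoculation was 3 days before (curative) or 1 day after (protectant) treatment, followed by 24 h dark dew at 22 °C, 100% RH, then 23 °C; disease severity scored on sprayed leaves.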

In the next assay the test system is Zymoseptoria tritici. As to the kind of experiment: Leaf blotch of wheat (SEPTTR), disease control on wheat seedlings. The following applies: low volume application at 121.5 g/H. The method, boiled down:
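Yuma wheat seedlings with the first leaf fully emerged were sprayed to run-off with compound in acetone plus nine volumes of water containing 110 ppm Triton X-100; track-spray tests used EC formulations with 0.1% Trycol 5941. Z. tritici inoculation came before or after treatment, followed by 100% RH dew periods and a 20 °C greenhouse. Percent control was calculated from severity versus untreated plants.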

Setting [1] is: 24 h, 1 Day Protectant, wheat brown rust, read-out: PUCCRT 1DP disease control, LV activity.
Setting [2] is: 72 h, 3 Day Curative, wheat brown rust, read-out: PUCCRT 3DC disease control, LV activity.
[3] abbreviates: 24 h, 1 Day Protectant, read-out: PHAKPA 1DP disease control rating.
Setting [4] is: 72 h, 3 Day Curative, read-out: PHAKPA 3DC disease control rating.
The mark [5] stands for this setting: 24 h, 1 Day Protectant, wheat leaf blotch, read-out: SEPTTR 1DP disease control, LV activity.
The mark [6] stands for this setting: 72 h, 3 Day Curative, wheat leaf blotch, read-out: SEPTTR 3DC disease control, LV activity.
[7] abbreviates: 24 h, 1 Day Protectant, read-out: PUCCRT disease control, 1DP, LV activity.
The mark [8] stands for this setting: 72 h, 3 Day Curative, read-out: PUCCRT disease control, 3DC, LV activity.
Where [9] appears, read: 24 h, 1 Day Protectant, read-out: SEPTTR disease control, 1DP, LV activity.
[10] abbreviates: 72 h, 3 Day Curative, read-out: SEPTTR disease control, 3DC, LV activity.

Read-outs that look alike come from different tables or passages of the source.

As to `COc1ccc([C@H](C(C)C)[C@H](C)OC(=O)[C@H](C)NC(=O)c2nccc(OC)c2OC(C)=O)cc1` [Compound 383], the pest or weed control at 121.5 g/ha was above 80% in the assay with Puccinia triticina (setting [1]), below 80% in the assay on Puccinia triticina (setting [2]), below 80% with Zymoseptoria tritici (setting [5]) and below 80% in the assay with Zymoseptoria tritici (setting [6]). Also, the pest or weed control at 25 ppm with Phakopsora pachyrhizi (setting [3]) is above 80%; in the assay with Phakopsora pachyrhizi (setting [4]) it was below 80%.

For `CCC(C)[C@H](c1ccc(C)cc1C)[C@H](C)OC(=O)[C@H](C)NC(=O)c1nccc(OC)c1OC(C)=O` (stereo partly drawn) [Compound 203], the pest or weed control at 121.5 g/ha in the assay with Puccinia triticina (setting [7]), in the assay with Puccinia triticina (setting [8]), in the assay with Zymoseptoria tritici (setting [9]) and in the assay with Zymoseptoria tritici (setting [10]) was below 80% each time. Besides, the pest or weed control at 25 ppm with Phakopsora pachyrhizi (setting [3]) is above 80%; in the assay with Phakopsora pachyrhizi (setting [4]) it was below 0%.

As for `COc1ccnc(C(=O)N[C@@H](C)C(=O)O[C@@H](C)[C@H](c2ccc(Cl)cc2Cl)C(C)C)c1OC(C)=O` [Compound 367], the pest or weed control at 121.5 g/ha in the assay on Puccinia triticina (setting [1]) was above 80%; with Puccinia triticina (setting [2]), above 80%; in the assay with Zymoseptoria tritici (setting [5]), above 80%; in the assay with Zymoseptoria tritici (setting [6]), below 80%. Moreover, the pest or weed control at 25 ppm with Phakopsora pachyrhizi (setting [3]) and in the assay on Phakopsora pachyrhizi (setting [4]) was above 80% in each case.

`COc1ccnc(C(=O)N[C@@H](C)C(=O)O[C@H](C)[C@H](c2ccc(F)cc2C)C2CCCC2)c1OC(C)=O` [Compound 190]: the pest or weed control at 121.5 g/ha is below 0% in the assay on Puccinia triticina (setting [7]), below 0% in the assay on Puccinia triticina (setting [8]), below 0% with Zymoseptoria tritici (setting [9]) and below 80% with Zymoseptoria tritici (setting [10]). For the same compound, the pest or weed control at 25 ppm in the assay on Phakopsora pachyrhizi (setting [3]) and in the assay with Phakopsora pachyrhizi (setting [4]) was below 80% each time.

Consider `CCC(C)[C@@H](c1ccc(F)cc1C)[C@H](C)OC(=O)[C@H](C)NC(=O)c1nccc(OC)c1OCOC(C)=O` (stereo partly drawn) [Compound 196], for which the pest or weed control at 121.5 g/ha with Puccinia triticina (setting [7]), in the assay with Puccinia triticina (setting [8]), in the assay with Zymoseptoria tritici (setting [9]) and with Zymoseptoria tritici (setting [10]) was above 80% each time. Also, the pest or weed control at 25 ppm in the assay on Phakopsora pachyrhizi (setting [3]) is above 80%; in the assay with Phakopsora pachyrhizi (setting [4]), below 80%.

Turning to `COc1ccnc(C(=O)N[C@@H](C)C(=O)O[C@@H](C)[C@H](c2ccc(F)cc2F)C(C)C)c1OC(C)=O` [Compound 365], the pest or weed control at 121.5 g/ha in the assay on Puccinia triticina (setting [1]), in the assay on Puccinia triticina (setting [2]), with Zymoseptoria tritici (setting [5]) and in the assay on Zymoseptoria tritici (setting [6]) was above 80% each time. Besides, the pest or weed control at 25 ppm with Phakopsora pachyrhizi (setting [3]) and with Phakopsora pachyrhizi (setting [4]) was above 80% in each case.

Take `COc1cc(F)ccc1[C@H](C1CCCC1)[C@H](C)OC(=O)[C@H](C)NC(=O)c1nccc(OC)c1OCOC(C)=O` [Compound 235]: the pest or weed control at 121.5 g/ha is above 80% with Puccinia triticina (setting [7]), below 80% in the assay on Puccinia triticina (setting [8]), below 80% in the assay with Zymoseptoria tritici (setting [9]) and below 80% in the assay on Zymoseptoria tritici (setting [10]). Besides, the pest or weed control at 25 ppm was above 80% in the assay with Phakopsora pachyrhizi (setting [3]) and below 80% in the assay on Phakopsora pachyrhizi (setting [4]).

For `CCC(C)[C@@H](c1ccc(F)cc1OC)[C@H](C)OC(=O)[C@H](C)NC(=O)c1nccc(OC)c1OC(C)=O` (stereo partly drawn) [Compound 230], the pest or weed control at 121.5 g/ha was above 80% in the assay on Puccinia triticina (setting [7]), above 80% in the assay with Puccinia triticina (setting [8]), above 80% with Zymoseptoria tritici (setting [9]) and below 80% in the assay on Zymoseptoria tritici (setting [10]). The pest or weed control at 25 ppm was above 80% in the assay with Phakopsora pachyrhizi (setting [3]) and below 80% in the assay on Phakopsora pachyrhizi (setting [4]).

`COCCC(=O)Oc1c(OC)ccnc1C(=O)N[C@@H](C)C(=O)O[C@@H](C)[C@H](c1ccc(F)cc1OC)C1CCC1` [Compound 238]: the pest or weed control at 121.5 g/ha in the assay with Puccinia triticina (setting [7]), in the assay with Puccinia triticina (setting [8]), in the assay with Zymoseptoria tritici (setting [9]) and in the assay on Zymoseptoria tritici (setting [10]) was below 80% in each case. In addition, the pest or weed control at 25 ppm with Phakopsora pachyrhizi (setting [3]) and with Phakopsora pachyrhizi (setting [4]) was below 80% in each case.

As for `COc1cc(F)ccc1[C@H](C1CCCC1)[C@H](C)OC(=O)[C@H](C)NC(=O)c1nccc(OC)c1OC(C)=O` [Compound 228], the pest or weed control at 121.5 g/ha was above 80% in the assay with Puccinia triticina (setting [7]), below 80% in the assay with Puccinia triticina (setting [8]), above 80% in the assay with Zymoseptoria tritici (setting [9]) and below 80% in the assay with Zymoseptoria tritici (setting [10]). Also, the pest or weed control at 25 ppm in the assay with Phakopsora pachyrhizi (setting [3]) is above 80%; in the assay with Phakopsora pachyrhizi (setting [4]), below 80%.

On to `COc1ccnc(C(=O)N[C@@H](C)C(=O)O[C@@H](C)[C@H](c2ccc(OC(F)(F)F)cc2)C(C)C)c1OCOC(C)=O` [Compound 378], for which the pest or weed control at 121.5 g/ha in the assay on Puccinia triticina (setting [1]), in the assay with Puccinia triticina (setting [2]), in the assay on Zymoseptoria tritici (setting [5]) and in the assay on Zymoseptoria tritici (setting [6]) was above 80% throughout. Moreover, the pest or weed control at 25 ppm in the assay with Phakopsora pachyrhizi (setting [3]) and in the assay on Phakopsora pachyrhizi (setting [4]) was below 80% in each case.

Consider `COc1ccnc(C(=O)N[C@@H](C)C(=O)O[C@@H](C)[C@@H](c2ccc(F)cc2C)C2CCCCC2)c1OC(C)=O` [Compound 181], for which the pest or weed control at 121.5 g/ha was below 80% with Puccinia triticina (setting [7]), below 80% with Puccinia triticina (setting [8]), below 80% with Zymoseptoria tritici (setting [9]) and above 80% in the assay on Zymoseptoria tritici (setting [10]). Besides, the pest or weed control at 25 ppm is below 0% in the assay on Phakopsora pachyrhizi (setting [3]) and below 80% with Phakopsora pachyrhizi (setting [4]).

In the case of `COc1ccnc(C(=O)N[C@@H](C)C(=O)O[C@@H](C)[C@@H](c2ccc(C)cc2C)C2CCCC2)c1OC(C)=O` [Compound 201], the pest or weed control at 121.5 g/ha is above 80% in the assay with Puccinia triticina (setting [7]), below 80% with Puccinia triticina (setting [8]), below 80% in the assay on Zymoseptoria tritici (setting [9]) and below 80% with Zymoseptoria tritici (setting [10]). The figures for the pest or weed control at 25 ppm in the assay with Phakopsora pachyrhizi (setting [3]) and in the assay on Phakopsora pachyrhizi (setting [4]) were below 80% and below 0%, respectively.

On to `COCCC(=O)Oc1c(OC)ccnc1C(=O)N[C@@H](C)C(=O)O[C@@H](C)[C@H](c1ccc(F)cc1OC)C(C)C` [Compound 239], for which the pest or weed control at 121.5 g/ha with Puccinia triticina (setting [7]) is above 80%; with Puccinia triticina (setting [8]), above 80%; in the assay on Zymoseptoria tritici (setting [9]), above 80%; in the assay on Zymoseptoria tritici (setting [10]) it was below 80%. Moreover, the pest or weed control at 25 ppm with Phakopsora pachyrhizi (setting [3]) and with Phakopsora pachyrhizi (setting [4]) was above 80% each time.

The values above are taken from US20180186742A1, “PICOLINAMIDES AS FUNGICIDES” (Dow AgroSciences LLC, priority 2017, published 2018).
